Experiments:
[1] = Test on the solubility in a simulated body fluid; format: physicochemical; details: 0.01 M PBS pH 7.4, 37° C.
Description: Test on the Solubility in a Simulated Body Fluid
The concentration of the drug dissolved in the PBS buffered solution was determined with an HPLC-a method.

[2] = Test on the solubility in media at different pH; format: physicochemical
Description: Test on the Solubility in Media at Different pH
About 200 mg of solid powders of Preparation Example 10 and Preparation Example 15 were added in a 500 mL phosphate buffered solution at different pH values (50 mmol/L, pH 5.5, pH 6.5, pH 7.4, and pH 8.0) respectively, placed into a dissolution tester, kept at a constant temperature of 37° C., and paddle stirred at 50 rpm for 72 hours. Appropriate amounts of the suspension were taken out at 15 min, 30 min, 45 min, 1 h, 2 h, 4 h, 6 h, 8 h, 24 h, 32 h, 48 h, and 72 h respectively, and centrifuged immediately (15000 rpm, 5 min). The supernatant was diluted with methanol by a factor of two. The concentration of the drug dissolved in the PB buffer solution was determined with an HPLC-b method.

[3] = phosphate buffer pH 5.5, 37° C., 0.25 h
[4] = phosphate buffer pH 5.5, 37° C., 0.5 h
[5] = phosphate buffer pH 5.5, 37° C., 0.75 h
[6] = phosphate buffer pH 5.5, 37° C., 1 h
[7] = phosphate buffer pH 5.5, 37° C., 2 h
[8] = phosphate buffer pH 5.5, 37° C., 4 h
[9] = phosphate buffer pH 5.5, 37° C., 6 h
[10] = phosphate buffer pH 5.5, 37° C., 8 h
[11] = phosphate buffer pH 5.5, 37° C., 24 h
[12] = phosphate buffer pH 5.5, 37° C., 32 h
[13] = phosphate buffer pH 5.5, 37° C., 48 h
[14] = phosphate buffer pH 5.5, 37° C., 72 h
[15] = phosphate buffer pH 6.5, 37° C., 0.25 h
[16] = phosphate buffer pH 6.5, 37° C., 0.5 h
[17] = phosphate buffer pH 6.5, 37° C., 0.75 h
[18] = phosphate buffer pH 6.5, 37° C., 1 h
[19] = phosphate buffer pH 6.5, 37° C., 2 h
[20] = phosphate buffer pH 6.5, 37° C., 4 h
[21] = phosphate buffer pH 6.5, 37° C., 6 h
[22] = phosphate buffer pH 6.5, 37° C., 8 h
[23] = phosphate buffer pH 6.5, 37° C., 24 h
[24] = phosphate buffer pH 6.5, 37° C., 32 h
[25] = phosphate buffer pH 6.5, 37° C., 48 h
[26] = phosphate buffer pH 6.5, 37° C., 72 h
[27] = phosphate buffer pH 7.4, 37° C., 0.25 h
[28] = phosphate buffer pH 7.4, 37° C., 0.5 h
[29] = phosphate buffer pH 7.4, 37° C., 0.75 h
[30] = phosphate buffer pH 7.4, 37° C., 1 h
[31] = phosphate buffer pH 7.4, 37° C., 2 h
[32] = phosphate buffer pH 7.4, 37° C., 4 h
[33] = phosphate buffer pH 7.4, 37° C., 6 h
[34] = phosphate buffer pH 7.4, 37° C., 8 h
[35] = phosphate buffer pH 7.4, 37° C., 24 h
[36] = phosphate buffer pH 7.4, 37° C., 32 h
[37] = phosphate buffer pH 7.4, 37° C., 48 h
[38] = phosphate buffer pH 7.4, 37° C., 72 h
[39] = phosphate buffer pH 8.0, 37° C., 0.25 h
[40] = phosphate buffer pH 8.0, 37° C., 0.5 h
[41] = phosphate buffer pH 8.0, 37° C., 0.75 h
[42] = phosphate buffer pH 8.0, 37° C., 1 h
[43] = phosphate buffer pH 8.0, 37° C., 2 h
[44] = phosphate buffer pH 8.0, 37° C., 4 h
[45] = phosphate buffer pH 8.0, 37° C., 6 h
[46] = phosphate buffer pH 8.0, 37° C., 8 h
[47] = phosphate buffer pH 8.0, 37° C., 24 h
[48] = phosphate buffer pH 8.0, 37° C., 32 h
[49] = phosphate buffer pH 8.0, 37° C., 48 h
[50] = phosphate buffer pH 8.0, 37° C., 72 h

In the case of `CCCCN1CCCCC1C(=O)Nc1c(C)cccc1C.O=C(O)c1cc2ccccc2c(Cc2c(O)c(C(=O)O)cc3ccccc23)c1O` [Preparation Example 10, mono(bupivacaine) pamoate], the “Compound concentration: Bupivacaine” value ([1]; 5 min) is reported as 722 µM, the “Compound concentration: Pamoic acid” value ([1]; 5 min) is reported as 742.7 µM and the “Compound concentration: Bupivacaine” value ([1]; 15 min) is reported as 833 µM. For the same compound, the “Compound concentration: Pamoic acid” value ([1]; 15 min) was 857.9 µM, the “Compound concentration: Bupivacaine” value ([1]; 30 min) was 885.9 µM and the “Compound concentration: Pamoic acid” value ([1]; 30 min) was 916.8 µM. The “Compound concentration: Bupivacaine” value ([1]; 1 h) was 938.7 µM, the “Compound concentration: Pamoic acid” value ([1]; 1 h) was 981.6 µM and the “Compound concentration: Bupivacaine” value ([1]; 2 h) was 909.7 µM. For the same compound, the “Compound concentration: Pamoic acid” value ([1]; 2 h) was 995.7 µM, the “Compound concentration: Bupivacaine” value ([1]; 6 h) was 83.3 µM and the “Compound concentration: Pamoic acid” value ([1]; 6 h) was 1867.3 µM. For the same compound, the “Compound concentration: Bupivacaine” value ([1]; 24 h) was 67 µM, the “Compound concentration: Pamoic acid” value ([1]; 24 h) was 2560.5 µM and the “molar ratio of the solubility (bupivacaine to pamoic acid)” value ([2]; media at pH 5.5, pH 7.4 and pH 8.0, remained for 48 hours or less) was “around 1.0”. The “time for which the molar ratio of the solubility remained around 1.0” value ([2]; medium at pH 6.5, decreased after a longer time) was 8 h, the “Molar concentration of Bupivacaine” value [2, 3] was 0.047 mmol/L and the “Molar concentration of Pamoic acid” value [2, 3] was 0.046 mmol/L. For the same compound, the “Molar concentration of Bupivacaine” value [2, 4] was 0.078 mmol/L, the “Molar concentration of Pamoic acid” value [2, 4] was 0.076 mmol/L and the “Molar concentration of Bupivacaine” value [2, 5] was 0.106 mmol/L. For the same compound, the “Molar concentration of Pamoic acid” value [2, 5] was 0.103 mmol/L, the “Molar concentration of Bupivacaine” value [2, 6] was 0.136 mmol/L and the “Molar concentration of Pamoic acid” value [2, 6] was 0.132 mmol/L. The “Molar concentration of Bupivacaine” value [2, 7] was 0.188 mmol/L, the “Molar concentration of Pamoic acid” value [2, 7] was 0.182 mmol/L and the “Molar concentration of Bupivacaine” value [2, 8] was 0.222 mmol/L. The “Molar concentration of Pamoic acid” value [2, 8] was 0.218 mmol/L, the “Molar concentration of Bupivacaine” value [2, 9] was 0.234 mmol/L and the “Molar concentration of Pamoic acid” value [2, 9] was 0.232 mmol/L. For the same compound, the “Molar concentration of Bupivacaine” value [2, 10] was 0.234 mmol/L, the “Molar concentration of Pamoic acid” value [2, 10] was 0.23 mmol/L and the “Molar concentration of Bupivacaine” value [2, 11] was 0.246 mmol/L. The “Molar concentration of Pamoic acid” value [2, 11] was 0.244 mmol/L, the “Molar concentration of Bupivacaine” value [2, 12] was 0.248 mmol/L and the “Molar concentration of Pamoic acid” value [2, 12] was 0.248 mmol/L. The “Molar concentration of Bupivacaine” value [2, 13] was 0.198 mmol/L, the “Molar concentration of Pamoic acid” value [2, 13] was 0.236 mmol/L and the “Molar concentration of Bupivacaine” value [2, 14] was 0.142 mmol/L. The “Molar concentration of Pamoic acid” value [2, 14] was 0.224 mmol/L, the “Molar concentration of Bupivacaine” value [2, 15] was 0.05 mmol/L and the “Molar concentration of Pamoic acid” value [2, 15] was 0.053 mmol/L. For the same compound, the “Molar concentration of Bupivacaine” value [2, 16] was 0.084 mmol/L, the “Molar concentration of Pamoic acid” value [2, 16] was 0.09 mmol/L and the “Molar concentration of Bupivacaine” value [2, 17] was 0.115 mmol/L. For the same compound, the “Molar concentration of Pamoic acid” value [2, 17] was 0.124 mmol/L, the “Molar concentration of Bupivacaine” value [2, 18] was 0.148 mmol/L and the “Molar concentration of Pamoic acid” value [2, 18] was 0.160 mmol/L. For the same compound, the “Molar concentration of Bupivacaine” value [2, 19] was 0.274 mmol/L, the “Molar concentration of Pamoic acid” value [2, 19] was 0.296 mmol/L and the “Molar concentration of Bupivacaine” value [2, 20] was 0.384 mmol/L. For the same compound, the “Molar concentration of Pamoic acid” value [2, 20] was 0.414 mmol/L, the “Molar concentration of Bupivacaine” value [2, 21] was 0.396 mmol/L and the “Molar concentration of Pamoic acid” value [2, 21] was 0.424 mmol/L. For the same compound, the “Molar concentration of Bupivacaine” value [2, 22] was 0.404 mmol/L, the “Molar concentration of Pamoic acid” value [2, 22] was 0.448 mmol/L and the “Molar concentration of Bupivacaine” value [2, 23] was 0.186 mmol/L. For the same compound, the “Molar concentration of Pamoic acid” value [2, 23] was 0.440 mmol/L, the “Molar concentration of Bupivacaine” value [2, 24] was 0.15 mmol/L and the “Molar concentration of Pamoic acid” value [2, 24] was 0.426 mmol/L. The “Molar concentration of Bupivacaine” value [2, 25] was 0.14 mmol/L, the “Molar concentration of Pamoic acid” value [2, 25] was 0.428 mmol/L and the “Molar concentration of Bupivacaine” value [2, 26] was 0.128 mmol/L. The “Molar concentration of Pamoic acid” value [2, 26] was 0.416 mmol/L, the “Molar concentration of Bupivacaine” value [2, 27] was 0.0555 mmol/L and the “Molar concentration of Pamoic acid” value [2, 27] was 0.0605 mmol/L. The “Molar concentration of Bupivacaine” value [2, 28] was 0.095 mmol/L, the “Molar concentration of Pamoic acid” value [2, 28] was 0.105 mmol/L and the “Molar concentration of Bupivacaine” value [2, 29] was 0.1315 mmol/L. The “Molar concentration of Pamoic acid” value [2, 29] was 0.1465 mmol/L, the “Molar concentration of Bupivacaine” value [2, 30] was 0.170 mmol/L and the “Molar concentration of Pamoic acid” value [2, 30] was 0.190 mmol/L. The “Molar concentration of Bupivacaine” value [2, 31] was 0.288 mmol/L, the “Molar concentration of Pamoic acid” value [2, 31] was 0.320 mmol/L and the “Molar concentration of Bupivacaine” value [2, 32] was 0.386 mmol/L. For the same compound, the “Molar concentration of Pamoic acid” value [2, 32] was 0.430 mmol/L, the “Molar concentration of Bupivacaine” value [2, 33] was 0.428 mmol/L and the “Molar concentration of Pamoic acid” value [2, 33] was 0.476 mmol/L. For the same compound, the “Molar concentration of Bupivacaine” value [2, 34] was 0.440 mmol/L, the “Molar concentration of Pamoic acid” value [2, 34] was 0.486 mmol/L and the “Molar concentration of Bupivacaine” value [2, 35] was 0.426 mmol/L. The “Molar concentration of Pamoic acid” value [2, 35] was 0.550 mmol/L, the “Molar concentration of Bupivacaine” value [2, 36] was 0.402 mmol/L and the “Molar concentration of Pamoic acid” value [2, 36] was 0.592 mmol/L. For the same compound, the “Molar concentration of Bupivacaine” value [2, 37] was 0.204 mmol/L, the “Molar concentration of Pamoic acid” value [2, 37] was 0.498 mmol/L and the “Molar concentration of Bupivacaine” value [2, 38] was 0.166 mmol/L. The “Molar concentration of Pamoic acid” value [2, 38] was 0.458 mmol/L, the “Molar concentration of Bupivacaine” value [2, 39] was 0.0575 mmol/L and the “Molar concentration of Pamoic acid” value [2, 39] was 0.063 mmol/L. For the same compound, the “Molar concentration of Bupivacaine” value [2, 40] was 0.099 mmol/L, the “Molar concentration of Pamoic acid” value [2, 40] was 0.110 mmol/L and the “Molar concentration of Bupivacaine” value [2, 41] was 0.1375 mmol/L. The “Molar concentration of Pamoic acid” value [2, 41] was 0.154 mmol/L, the “Molar concentration of Bupivacaine” value [2, 42] was 0.178 mmol/L and the “Molar concentration of Pamoic acid” value [2, 42] was 0.200 mmol/L. For the same compound, the “Molar concentration of Bupivacaine” value [2, 43] was 0.308 mmol/L, the “Molar concentration of Pamoic acid” value [2, 43] was 0.344 mmol/L and the “Molar concentration of Bupivacaine” value [2, 44] was 0.416 mmol/L. For the same compound, the “Molar concentration of Pamoic acid” value [2, 44] was 0.468 mmol/L, the “Molar concentration of Bupivacaine” value [2, 45] was 0.494 mmol/L and the “Molar concentration of Pamoic acid” value [2, 45] was 0.554 mmol/L. The “Molar concentration of Bupivacaine” value [2, 46] was 0.558 mmol/L, the “Molar concentration of Pamoic acid” value [2, 46] was 0.624 mmol/L and the “Molar concentration of Bupivacaine” value [2, 47] was 0.610 mmol/L. The “Molar concentration of Pamoic acid” value [2, 47] was 0.688 mmol/L, the “Molar concentration of Bupivacaine” value [2, 48] was 0.622 mmol/L and the “Molar concentration of Pamoic acid” value [2, 48] was 0.702 mmol/L. The “Molar concentration of Bupivacaine” value [2, 49] was 0.592 mmol/L, the “Molar concentration of Pamoic acid” value [2, 49] was 0.694 mmol/L and the “Molar concentration of Bupivacaine” value [2, 50] was 0.44 mmol/L. The “Molar concentration of Pamoic acid” value [2, 50] was 0.7 mmol/L.

Source: patent US11084790B2, “Insoluble complex or solvate thereof, pharmaceutical composition and use thereof” (Fruithy Holdings Limited, priority 2017, dated 2021)
